IC50 data for one compound are collected here from publication PMC4942054 (PLoS ONE, 2016).

This assay deals with T1, dihydrofolate reductase (DHFR) from chicken liver (Gallus gallus, UniProt P00378).
T1 sequence (P00378 1-189): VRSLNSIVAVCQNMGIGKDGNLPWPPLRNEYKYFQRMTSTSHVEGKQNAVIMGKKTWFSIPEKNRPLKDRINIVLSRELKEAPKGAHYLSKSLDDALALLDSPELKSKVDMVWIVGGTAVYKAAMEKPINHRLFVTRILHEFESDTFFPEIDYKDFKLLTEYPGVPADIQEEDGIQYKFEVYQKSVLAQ
The assay is described as follows: DHF-dependent NADPH oxidation, absorbance at […] nm. Format: biochemical. To be noted: 0.187 mM DHF, 0.137 mM NADPH, 0.5 M KCl, 0.05 M Tris-HCl pH 7.5, 25°C, 40 min; partially purified enzyme 35 μg/ml; sample released from PEG40 conjugate at pH 3.0, equipotent to MTX-hexamethylenamine.

Consider `CN(Cc1cnc2nc(N)nc(N)c2n1)c1ccc(C(=O)N[C@@H](CCC(=O)NCCCCCCN)C(=O)O)cc1` [MTX-hexamethylenamine], for which the IC50 was determined as 0.19 ± 0.007 µM.

The IC50 is the point on the concentration scale where inhibition reaches its midpoint.
